Laboratory results as given in the NIST ThermoML archive (doi:10.1016/j.jct.2018.07.011).
± gives the expanded uncertainty stated by the source.

Assay: relative permittivity at various frequencies (dimensionless)
Settings: Reentrant cavity resonator

F/C=C/C(F)(F)F [trans-1,3,3,3-tetrafluoropropene]
Settings	relative permittivity
248.98 K, 2078 kPa, Liquid, Frequency=200 MHz	3.44336 ± 0.0034
249 K, 4121 kPa, Liquid, Frequency=200 MHz	3.45458 ± 0.0035
249.02 K, 6251 kPa, Liquid, Frequency=200 MHz	3.46583 ± 0.0035
249.06 K, 8448 kPa, Liquid, Frequency=200 MHz	3.47696 ± 0.0035
249.07 K, 10680 kPa, Liquid, Frequency=200 MHz	3.48805 ± 0.0035
273.01 K, 7894 kPa, Liquid, Frequency=200 MHz	3.19554 ± 0.0032
273.19 K, 10470 kPa, Liquid, Frequency=200 MHz	3.21071 ± 0.0032
273.23 K, 4627 kPa, Liquid, Frequency=200 MHz	3.17426 ± 0.0032
273.36 K, 1598 kPa, Liquid, Frequency=200 MHz	3.15254 ± 0.0032
273.46 K, 486 kPa, Liquid, Frequency=200 MHz	3.14403 ± 0.0031
273.66 K, 73.9 kPa, Gas, Frequency=340 MHz	1.00498 ± 0.0005
274.29 K, 139 kPa, Gas, Frequency=340 MHz	1.00927 ± 0.0005
297.59 K, 79.6 kPa, Gas, Frequency=340 MHz	1.00458 ± 0.0005
297.59 K, 240.4 kPa, Gas, Frequency=340 MHz	1.01364 ± 0.00051
297.6 K, 349.7 kPa, Gas, Frequency=340 MHz	1.02033 ± 0.00051
297.63 K, 5735 kPa, Liquid, Frequency=200 MHz	2.92689 ± 0.0029
297.63 K, 10470 kPa, Liquid, Frequency=200 MHz	2.96416 ± 0.003
297.64 K, 140.5 kPa, Gas, Frequency=340 MHz	1.00794 ± 0.0005
297.65 K, 7982 kPa, Liquid, Frequency=200 MHz	2.94513 ± 0.0029
297.67 K, 1491 kPa, Liquid, Frequency=200 MHz	2.88752 ± 0.0029
297.67 K, 3490 kPa, Liquid, Frequency=200 MHz	2.90668 ± 0.0029
321.55 K, 211.2 kPa, Gas, Frequency=340 MHz	1.01063 ± 0.00051
321.63 K, 210.1 kPa, Gas, Frequency=340 MHz	1.0105 ± 0.00051
321.76 K, 3999 kPa, Liquid, Frequency=200 MHz	2.66845 ± 0.0027
321.78 K, 7249 kPa, Liquid, Frequency=200 MHz	2.70714 ± 0.0027
321.79 K, 10980 kPa, Liquid, Frequency=200 MHz	2.74469 ± 0.0027
345.96 K, 227.2 kPa, Gas, Frequency=340 MHz	1.01022 ± 0.00051
345.97 K, 225.2 kPa, Gas, Frequency=340 MHz	1.01005 ± 0.00051
346.5 K, 4377 kPa, Liquid, Frequency=200 MHz	2.42553 ± 0.0024
346.53 K, 6645 kPa, Liquid, Frequency=200 MHz	2.46858 ± 0.0025
346.59 K, 9481 kPa, Liquid, Frequency=200 MHz	2.51185 ± 0.0025
365.54 K, 236.9 kPa, Gas, Frequency=340 MHz	1.00981 ± 0.0005
365.79 K, 239.2 kPa, Gas, Frequency=340 MHz	1.00997 ± 0.0005
365.83 K, 4248 kPa, Liquid, Frequency=200 MHz	2.19675 ± 0.0022
365.87 K, 6046 kPa, Liquid, Frequency=200 MHz	2.25994 ± 0.0023
365.93 K, 9015 kPa, Liquid, Frequency=200 MHz	2.33081 ± 0.0023

C=C(F)C(F)(F)F [2,3,3,3-tetrafluoro-1-propene]
Settings	relative permittivity
248.51 K, 10580 kPa, Liquid, Frequency=120 MHz	11.2191 ± 0.011
248.71 K, 8271 kPa, Liquid, Frequency=120 MHz	11.1539 ± 0.011
248.95 K, 6475 kPa, Liquid, Frequency=120 MHz	11.0761 ± 0.011
249.16 K, 4746 kPa, Liquid, Frequency=120 MHz	11.0131 ± 0.011
249.37 K, 3089 kPa, Liquid, Frequency=120 MHz	10.9467 ± 0.011
249.67 K, 10580 kPa, Liquid, Frequency=120 MHz	11.1976 ± 0.011
249.71 K, 8272 kPa, Liquid, Frequency=120 MHz	11.1217 ± 0.011
249.75 K, 6476 kPa, Liquid, Frequency=120 MHz	11.0617 ± 0.011
249.76 K, 4750 kPa, Liquid, Frequency=120 MHz	10.9998 ± 0.011
249.77 K, 3089 kPa, Liquid, Frequency=120 MHz	10.9379 ± 0.011
273.14 K, 10470 kPa, Liquid, Frequency=120 MHz	9.47583 ± 0.0095
273.41 K, 10970 kPa, Liquid, Frequency=120 MHz	9.48739 ± 0.0095
273.5 K, 7893 kPa, Liquid, Frequency=120 MHz	9.37498 ± 0.0094
273.59 K, 8235 kPa, Liquid, Frequency=120 MHz	9.38477 ± 0.0094
273.69 K, 4628 kPa, Liquid, Frequency=120 MHz	9.24224 ± 0.0092
273.79 K, 5794 kPa, Liquid, Frequency=120 MHz	9.28399 ± 0.0093
273.95 K, 1601 kPa, Liquid, Frequency=120 MHz	9.10293 ± 0.0091
274.32 K, 3368 kPa, Liquid, Frequency=120 MHz	9.17004 ± 0.0092
275.05 K, 1116 kPa, Liquid, Frequency=120 MHz	9.04939 ± 0.009
297.54 K, 7675 kPa, Liquid, Frequency=120 MHz	7.93035 ± 0.0079
297.56 K, 247.8 kPa, Gas, Frequency=340 MHz	1.03846 ± 0.00052
297.57 K, 4942 kPa, Liquid, Frequency=120 MHz	7.79441 ± 0.0078
297.57 K, 10760 kPa, Liquid, Frequency=120 MHz	8.06626 ± 0.0081
297.58 K, 2537 kPa, Liquid, Frequency=120 MHz	7.65994 ± 0.0077
297.61 K, 259.6 kPa, Gas, Frequency=340 MHz	1.04022 ± 0.00052
297.63 K, 225.5 kPa, Gas, Frequency=340 MHz	1.03469 ± 0.00052
297.67 K, 100.9 kPa, Gas, Frequency=340 MHz	1.01502 ± 0.00051
321.5 K, 203 kPa, Gas, Frequency=340 MHz	1.02682 ± 0.00051
321.53 K, 644.4 kPa, Gas, Frequency=340 MHz	1.09027 ± 0.00055
321.55 K, 817.8 kPa, Gas, Frequency=340 MHz	1.11132 ± 0.00056
321.63 K, 4262 kPa, Liquid, Frequency=120 MHz	6.51012 ± 0.0065
321.65 K, 7089 kPa, Liquid, Frequency=120 MHz	6.70204 ± 0.0067
321.65 K, 10590 kPa, Liquid, Frequency=120 MHz	6.89633 ± 0.0069
345.73 K, 218.5 kPa, Gas, Frequency=340 MHz	1.02515 ± 0.00051
345.74 K, 874.9 kPa, Gas, Frequency=340 MHz	1.10115 ± 0.00055
345.75 K, 693 kPa, Gas, Frequency=340 MHz	1.08291 ± 0.00054
345.89 K, 4404 kPa, Liquid, Frequency=120 MHz	5.30782 ± 0.0053
345.93 K, 6822 kPa, Liquid, Frequency=120 MHz	5.57121 ± 0.0056
346.01 K, 10290 kPa, Liquid, Frequency=120 MHz	5.83949 ± 0.0058
365.22 K, 908.6 kPa, Gas, Frequency=340 MHz	1.09359 ± 0.00055
365.25 K, 713.8 kPa, Gas, Frequency=340 MHz	1.07604 ± 0.00054
365.3 K, 230.9 kPa, Gas, Frequency=340 MHz	1.0241 ± 0.00051

[Ar] [argon]
Gas, Frequency=340 MHz
Settings	relative permittivity
272.94 K, 8533 kPa	1.05077 ± 0.00053
273.04 K, 5986 kPa	1.03462 ± 0.00052
273.17 K, 3359 kPa	1.01869 ± 0.00051
297.44 K, 9503 kPa	1.05146 ± 0.00053
297.45 K, 3675 kPa	1.01893 ± 0.00051
297.45 K, 6614 kPa	1.03509 ± 0.00052
321.92 K, 4005 kPa	1.01899 ± 0.00051
321.93 K, 7248 kPa	1.03523 ± 0.00052

O=C=O [carbon dioxide]
Settings	relative permittivity
234.7 K, 5002 kPa, Liquid, Frequency=270 MHz	1.73109 ± 0.0017
234.76 K, 4012 kPa, Liquid, Frequency=270 MHz	1.729 ± 0.0017
234.77 K, 2015 kPa, Liquid, Frequency=270 MHz	1.72473 ± 0.0017
234.78 K, 3015 kPa, Liquid, Frequency=270 MHz	1.72689 ± 0.0017
235.13 K, 6031 kPa, Liquid, Frequency=270 MHz	1.73287 ± 0.0017
248.98 K, 4006 kPa, Liquid, Frequency=270 MHz	1.68089 ± 0.0017
249.12 K, 3018 kPa, Liquid, Frequency=270 MHz	1.67791 ± 0.0017
249.15 K, 2012 kPa, Liquid, Frequency=270 MHz	1.67486 ± 0.0017
251.38 K, 6015 kPa, Liquid, Frequency=270 MHz	1.68401 ± 0.0017
251.72 K, 5017 kPa, Liquid, Frequency=270 MHz	1.6809 ± 0.0017
252.7 K, 6996 kPa, Liquid, Frequency=270 MHz	1.685 ± 0.0017
273.6 K, 7004 kPa, Liquid, Frequency=270 MHz	1.59893 ± 0.0016
273.75 K, 6019 kPa, Liquid, Frequency=270 MHz	1.5936 ± 0.0016
274.12 K, 5019 kPa, Liquid, Frequency=270 MHz	1.58749 ± 0.0016
274.66 K, 4024 kPa, Liquid, Frequency=270 MHz	1.58054 ± 0.0016
297.38 K, 1176 kPa, Gas, Frequency=340 MHz	1.01138 ± 0.00051
297.57 K, 7002 kPa, Liquid, Frequency=270 MHz	1.45192 ± 0.0015
297.6 K, 5992 kPa, Gas, Frequency=340 MHz	1.10291 ± 0.00055
297.61 K, 6991 kPa, Liquid, Frequency=270 MHz	1.45145 ± 0.0015
297.64 K, 2005 kPa, Gas, Frequency=340 MHz	1.02052 ± 0.00051
297.7 K, 3002 kPa, Gas, Frequency=340 MHz	1.03319 ± 0.00052
297.73 K, 3998 kPa, Gas, Frequency=340 MHz	1.0487 ± 0.00052
297.75 K, 4570 kPa, Gas, Frequency=340 MHz	1.05962 ± 0.00053
